Experimental data from patent US20210293788A1, “METHOD FOR IDENTIFYING A CHEMICAL COMPOUND OR AGENT INDUCING UBIQUITINATION OF A PROTEIN OF INTEREST” (CeMM - Forschungszentrum fur Molekulare Medizin GmbH, priority 2018, published 2021).
“Also recorded” adds a separate entry of the source.

Legend:
[1] = tested on: KBM7 cells; experiment: Dose-ranging cellular viability assays in neddylation-impaired isogenic KBM7 cells; type: cell-based, human; conditions: for Cytotoxic activity / sensitivity in COPS8- or CAND1-modified cells: KBM7 cells modified in COPS8 or CAND1 versus non-modified control
Experimental: KBM7 cells mutated for five core genes were isolated and the underlying CRISPR-induced mutations were truncations leading to full knockouts (CAND1) or hypomorphic alleles (UBE2M, COPS8, COPS7B, GPS1). […] The observable shift in efficacy was at least 10-fold and up to 1000-fold, thus providing excellent signal to noise ratios. In sum, neddylation-impaired (NEDD^mut) cell line can be applied to find novel, yet uncharacterized MGs.
This is further exemplified when said cells are treated with the compound CC-885 (a molecular glue that reprograms the substrate receptor cereblon/CRBN to degrade GSPT1), or the PROTAC® compound THAL-SNS-032 (known to reprogram the substrate receptor cereblon/CRBN to degrade the cyclin dependent kinase 9, CDK9) (both see appended FIG. 22).
However, not for every cullin RING ligase (CRL), modifications of the COP9 signalosome subunit 8 (COPS8) or CAND1 (Cullin-associated NEDD8-dissociated protein 1; a substrate receptor exchange factor) lead to an ensuing destabilization via auto-degradation. An example for this is the substrate receptor VHL(von-Hippel-Lindau), which is part of the CRL2^VHL ligase complex. […] Therefore, measuring differential sensitivity of cells manipulated to contain altered neddylation states to a molecular glue/PROTAC® compound is a feasible surrogate to measure whether the substrate receptor that is reprogrammed by said molecular glue/PROTAC® undergoes destabilization/auto-degradation upon altering the neddylation states.

[2] = molecular target: T1, CRBN (Homo sapiens, UniProt Q96SW2); experiment: Re-stabilization of CRBN by small-molecule degraders after CSN5i-3 pretreatment (western blot); type: cell-based; conditions: WT cells pretreated 2 h with DMSO, 25, 100 or 500 nM CSN5i-3, then 500 nM compound
T1 construct: endogenous in cells; host or cells: wild-type cells (KBM7 by context)
T1 sequence (Q96SW2 whole entry): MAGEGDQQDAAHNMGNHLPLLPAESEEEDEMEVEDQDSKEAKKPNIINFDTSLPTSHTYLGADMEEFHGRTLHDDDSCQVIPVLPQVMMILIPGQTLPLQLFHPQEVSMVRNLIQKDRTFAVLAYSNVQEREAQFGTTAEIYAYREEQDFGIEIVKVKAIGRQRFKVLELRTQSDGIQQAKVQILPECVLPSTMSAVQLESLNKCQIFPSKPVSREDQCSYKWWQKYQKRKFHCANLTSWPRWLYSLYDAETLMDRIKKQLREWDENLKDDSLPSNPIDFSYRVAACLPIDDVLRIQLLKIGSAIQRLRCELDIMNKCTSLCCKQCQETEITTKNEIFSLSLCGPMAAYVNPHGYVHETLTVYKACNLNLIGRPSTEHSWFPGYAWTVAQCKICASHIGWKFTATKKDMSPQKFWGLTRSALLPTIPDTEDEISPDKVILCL
Experimental: To explore the re-stabilization of SR upon ligand treatment, WT cells were pretreated with different doses of CSN5i-3 for 2h to firstly induce SR autodegradation. As a proof of principle, the SR CRBN was used, and the autodegradation by WB was checked (FIG. 2B-D).

[3] = molecular target: T1, CRBN; experiment: CRBN HiBit bioluminescence assay in COPS8 knock-out cells (Example 2); type: cell-based; conditions: 4 hours of compound treatment
Experimental: Afterwards, CRISPR/Cas9 is used to knock-out the CSN (COP9 signalosome) subunit COPS8 (COP9 signalosome complex subunit 8). Ensuing loss of CRBN HiBit is assayed via immunoblot and loss of bioluminescence. […] After 4 hours of compound treatment, CRBNHiBit levels are assayed via bioluminescence by adding the detection reagent, which consists of a lysis buffer and recombinant LgBit protein. Within 10 minutes after addition of the detection reagent, luminescence is read with a standard plate reader, and is a proxy for drug-induced changes in CRBN levels.

[4] = tested on: CRBN; experiment: CRBN levels by western blot after CSN5i-3 treatment (autodegradation); type: cell-based, human
Source text: As a first approach, the levels of cereblon (CRBN), the SR of the CRL4^CRBN E3 ligase machinery, were checked by western blot (WB) in the mutant backgrounds. A strong decrease in CRBN levels in the COPS8 (COP9 signalosome complex subunit 8)-mutant cells was observed, and a less prominent downregulation in the CAND1-deficient cells (FIG. 1B). […] The CSN-impaired condition was used as a focus as this condition was sought to chemically mimic the genetic mutants. […] CRBN destabilization following CSN5i-3 treatment were rescued in CUL4A-deficient cells (FIG. 1E) or in cells lacking UBE2G1 (ubiquitin-conjugating enzyme E2 G1), a E2 ubiquitin-conjugating enzyme previously related to target degradation via the CRL4^CRBN ligase (FIG. 1F).

[5] = molecular target: T2, DCAF15 (Homo sapiens, UniProt Q66K64); experiment: DCAF15 HiBit/LgBit luciferase assay (knock-in or ectopic, live-cell or lytic detection); type: cell-based
T2 construct: expressed in transfected cells
T2 sequence (Q66K64 whole entry): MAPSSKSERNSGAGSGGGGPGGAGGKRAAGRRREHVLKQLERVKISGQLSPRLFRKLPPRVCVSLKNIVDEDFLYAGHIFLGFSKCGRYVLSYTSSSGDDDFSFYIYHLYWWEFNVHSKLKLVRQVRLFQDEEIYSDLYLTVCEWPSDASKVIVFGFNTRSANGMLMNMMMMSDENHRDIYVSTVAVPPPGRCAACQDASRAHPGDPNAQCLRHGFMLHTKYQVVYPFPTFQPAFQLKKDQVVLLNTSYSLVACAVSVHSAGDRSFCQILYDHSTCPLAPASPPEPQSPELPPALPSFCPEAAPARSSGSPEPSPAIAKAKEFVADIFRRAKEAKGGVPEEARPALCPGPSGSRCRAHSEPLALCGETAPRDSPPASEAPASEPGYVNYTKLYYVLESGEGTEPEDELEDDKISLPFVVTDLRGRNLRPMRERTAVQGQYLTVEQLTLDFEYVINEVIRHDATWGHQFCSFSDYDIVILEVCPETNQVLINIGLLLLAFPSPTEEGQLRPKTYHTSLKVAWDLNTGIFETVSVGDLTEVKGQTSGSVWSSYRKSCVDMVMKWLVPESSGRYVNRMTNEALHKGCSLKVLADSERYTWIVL
Experimental: Generation of HiBit DCAF15 knock-in cells: HEK293t WT cells at 70-80% confluency were transiently transfected in a 6 well plate with a mix of 3 ug Cas9-sgRNA vector (PX458, addgene #48138, containing sgRNA [NT]), 6 ug of single stranded oligonucleotide donor (ssOND, 20 bp homology flanking the cut site) and 3.6 ug polyethylenimine (FIGS. 10 and 12). 72 hrs post-transfection cells were sorted (SH800 Cell sorter, SONY) for GFP positive cells and recovered for 24 hrs in media. Cells were subsequently seeded at a limiting dilution to generate single clones. Clones were tested after outgrowth for HiBit expression by seeding clonal cells in a black clear bottom 384 well plate and adding Nano-Glo HiBit Lytic buffer (Promega, N3030) reconstituted with recombinant LgBit and Nano-Glo HiBit Lytic Substrate in a 1:1 ratio. HiBit-expressing clones were validated by western blotting and detection of luciferase signal (Promega, N2410) at the correct size. For live cell luciferase detection (FIGS. 11 and 13) 7000 HEK293t cells with a HiBit knock-in at the N-terminus of DCAF15 and stable ectopic expression of LgBit were seeded in 10 uL per well into a black, clear-bottom 384 well plate (Corning, #3764) and incubated over night. 20 uL of media containing 1× Endurazine (Promega, N2570) was added to each well and incubated for 1 hour followed by a baseline luciferase measurement using an EnVision plate reader (Perkin Elmer). Subsequently CSN5i-3 or an equal volume of DMSO was added in 10 uL of media to a final concentration of 500 nM in the assay volume of 40 uL. Luciferase signal was measured hourly for 24 hours. For lytic HiBit detection (FIGS. 11 and 14) 10000 cells were seeded in 10 uL per well into a black clear bottom 384 well plate. After recovery cells were treated by addition of iCSN5-3 or an equal volume of DMSO in 10 uL of media to the cells. After the indicated treatment time cells were lysed by adding 20 uL Nano-Glo HiBit Lytic buffer (Promega, N3030) reconstituted with recombinant LgBit and Nano-Glo HiBit Lytic Substrate. Luciferase signal of each well was normalized to the mean DMSO luciferase signal yielding fold-change over DMSO. Luciferase signal was detected essentially as stated for FIG. 13 with the exception that indisulam (Sigma-Aldrich, SML1225) was added together with CSN5i-3 to cells in 10 uL of media to reach the indicated final concentration (FIG. 15). Luciferase signal of each well and timepoint was normalized to the mean DMSO luciferase signal yielding fold-change over DMSO. […] Luciferase signal was detected essentially as stated for FIG. 15 with the exception that indisulam and dCEMM.1 were added together with iCSN5-3 to cells in the 10 uL treatment to a final concertation of 10 uM (FIG. 17). Luciferase signal of each well and timepoint was normalized to the mean DMSO luciferase signal yielding fold-change over DMSO.

[6] = tested on: CRL substrate receptors (SRs) in KBM7 cells; experiment: Global expression proteomics of substrate receptors after CSN5i-3 treatment; type: cell-based, human; conditions: 1 μM, 8 h, versus DMSO
Experimental: In order to survey in an unbiased manner the subset of SRs undergoing autodegradation, global expression proteomics was applied to the different genetic backgrounds: WT, COPS8-mutant and CAND1-deficient KBM7 cells. In addition, expression proteomics following cellular treatment with CSN5i-3 was employed (1 μM, 8 h) (FIG. 1G-I).

[7] = molecular target: T1, CRBN; experiment: Stabilization of CRBN by CC-885 pretreatment followed by CSN5i-3 (western blot); type: cell-based; conditions: 125 nM CC-885 for 15 or 30 min before 100 nM CSN5i-3 for 2 hours
Experimental: Cells were first pretreated with the small-molecule (CC-885) known to recruit a new substrate (GSPT1=Eukaryotic peptide chain release factor GTP-binding subunit ERF3A) to the substrate receptor CRBN of the CRL4^CRBN ligase. Pre-treatment was conducted for either 15 or 30 minutes. Afterwards, cells were treated with the CSN (COP9 signalosome) inhibitor (CNS5i-3) for 2 hours. […] This was shown in FIG. 3 by comparing lane 2 of the CRBN blot (pre-treatment with DMSO/vehicle control) to lanes 4 (15 min pre-treatment) and lane 6 (30 min pre-treatment) of the same western blot. The same blot also documents that the present invention provides for means and methods how to determine the neddylation status of cullins constituting CRLs. As evident from FIG. 3, cells comprising a normal neddylation status or a steady-state neddylation status show two bands corresponding to a non-neddylated and a neddylated cullin, respectively. Average increase of neddylated to non-neddylated approximately 9 kDa. […]

CC(C)(C)c1cnc(CSc2cnc(NC(=O)C3CCN(CC(=O)NCCOCCOCCOCCNc4cccc5c4C(=O)N(C4CCC(=O)NC4=O)C5=O)CC3)s2)o1 (stereo not drawn) [THAL-SNS-032]
Cytotoxic activity / sensitivity in COPS8- or CAND1-modified cells [1]: reduced activity
CRBN stabilization (western blot) ([2]; listed as SNS-THAL-032): time-dependent stabilization of CRBN; also recorded: CRBN was stabilized upon SNS-THAL-032 treatment in cells treated with DMSO, 25 nM and 100 nM CSN5i-3

Cc1sc2c(c1C)C(c1ccc(Cl)cc1)=N[C@@H](CC(=O)NCCCCCCCCNC(=O)COc1cccc3c1C(=O)N(C1CCC(=O)NC1=O)C3=O)c1nnc(C)n1-2 (stereo partly drawn) [dBET6]
Cytotoxic activity / sensitivity in COPS8- or CAND1-modified cells [1]: reduced activity; also recorded: lose their cytotoxic activity
Resistance of mutant cells in cellular viability assay ([1]; KBM7 cells mutated in CAND1, UBE2M, COPS8, COPS7B or GPS1 versus wild type): caused resistance
CRBN stabilization (western blot) [2]: time-dependent stabilization of CRBN; also recorded: CRBN was stabilized upon dBET6 treatment in cells treated with DMSO, 25 nM and 100 nM CSN5i-3
CRBN HiBit levels (bioluminescence) [3]: quick stabilization of CRBN HiBit levels

CC(C)n1nc(C(F)F)cc1C(=O)Nc1ccc([C@H]2[C@@H](O)CCCc3cncn32)c(-c2ccccc2)c1 [CSN5i-3]
CRBN level (western blot) after CSN5i-3 ([4]; CUL4A-deficient cells (sgRNA targeting CUL4A)): Downregulation of CRBN is rescued
CRBN level (western blot) after CSN5i-3 ([4]; cells lacking UBE2G1 (sgRNA), 100 nM CSN5i-3, 0, 2, 4 and 6 hours): rescued in cells treated with two sgRNAs targeting UBE2G1
CRBN level (western blot) ([4]; cells treated with DMSO, MLN4924 or CSN5i-3): recapitulate CRBN downregulation; also recorded: Downregulation of CRBN is recapitulated
DCAF15 level (luciferase signal) after CSN5i-3 ([5]; live cells, HiBit-HA knock-in at DCAF15 locus, 500 nM): DCAF15 destabilization
DCAF15 level (luciferase signal) after CSN5i-3 ([5]; lytic detection, HiBit-HA knock-in at DCAF15 locus): DCAF15 destabilization
DCAF15 level (luciferase signal) after CSN5i-3 ([5]; lytic detection, ectopic overexpression of HiBit-HA-DCAF15): DCAF15 destabilization
CRBN abundance (expression proteomics) [6]: Downregulation of CRBN
Substrate receptors destabilized (expression proteomics) [6]: only affected a subset of the SRs associated to each of the cullins

Cc1ccc(NC(=O)NCc2ccc3c(c2)CN(C2CCC(=O)NC2=O)C3=O)cc1Cl (stereo not drawn) [CC-885]
Cytotoxic activity / sensitivity in COPS8- or CAND1-modified cells [1]: reduced activity; also recorded: lose their cytotoxic activity
CRBN stabilization (western blot) [7]: protects from CRBN auto-degradation; also recorded: CRBN was stabilized upon CC-885 treatment in the presence of CSN5i-3
CRBN stabilization (western blot) [2]: time-dependent stabilization of CRBN; also recorded: CRBN was stabilized upon CC-885 treatment in cells treated with DMSO, 25 nM, 100 nM and 500 nM CSN5i-3

Cc1ncsc1-c1ccc([C@H](C)NC(=O)[C@@H]2C[C@@H](O)CN2C(=O)[C@@H](NC(=O)COCCCOCCNC(=O)C[C@@H]2N=C(c3ccc(Cl)cc3)c3c(sc(C)c3C)-n3c(C)nnc32)C(C)(C)C)cc1 [ARV-771]
Cytotoxic activity / sensitivity in COPS8- or CAND1-modified cells [1]: sensitivity to ARV-771; also recorded: do not display an altered sensitivity
